The source of these data is US20200370056A1, “CELL LINES AND METHODS FOR INCREASED PROTEIN PRODUCTION” (ASTRAZENECA AB, priority 2017, published 2020).

One test has as its system HEK293 PLAP cell line. Description: PLAP expression by secreted enzymatic activity (p-Nitrophenyl phosphate, 405 nm). The class given is cell-based. As to conditions: Homo sapiens, PLAP model protein, enzymatic activity readout, read-out: pAC50 for Improved Protein Expression, PLAP (converted). The protocol:
An additional study was performed on different cells expressing GRFα2 and PLAP. The same assay performed on HEk293 CriptoFC 1B8 was performed on a cell line containing a single gene copy of GFRA2. […] The activity measurement for PLAP is based on the degradation of p-Nitrophenyl phosphate to p-Nitrophenyl which can be followed as an increase in absorbance at 405 nm.

Another test addresses T1, ULK1 (Homo sapiens, UniProt O75385).
T1 sequence (O75385 1-1050): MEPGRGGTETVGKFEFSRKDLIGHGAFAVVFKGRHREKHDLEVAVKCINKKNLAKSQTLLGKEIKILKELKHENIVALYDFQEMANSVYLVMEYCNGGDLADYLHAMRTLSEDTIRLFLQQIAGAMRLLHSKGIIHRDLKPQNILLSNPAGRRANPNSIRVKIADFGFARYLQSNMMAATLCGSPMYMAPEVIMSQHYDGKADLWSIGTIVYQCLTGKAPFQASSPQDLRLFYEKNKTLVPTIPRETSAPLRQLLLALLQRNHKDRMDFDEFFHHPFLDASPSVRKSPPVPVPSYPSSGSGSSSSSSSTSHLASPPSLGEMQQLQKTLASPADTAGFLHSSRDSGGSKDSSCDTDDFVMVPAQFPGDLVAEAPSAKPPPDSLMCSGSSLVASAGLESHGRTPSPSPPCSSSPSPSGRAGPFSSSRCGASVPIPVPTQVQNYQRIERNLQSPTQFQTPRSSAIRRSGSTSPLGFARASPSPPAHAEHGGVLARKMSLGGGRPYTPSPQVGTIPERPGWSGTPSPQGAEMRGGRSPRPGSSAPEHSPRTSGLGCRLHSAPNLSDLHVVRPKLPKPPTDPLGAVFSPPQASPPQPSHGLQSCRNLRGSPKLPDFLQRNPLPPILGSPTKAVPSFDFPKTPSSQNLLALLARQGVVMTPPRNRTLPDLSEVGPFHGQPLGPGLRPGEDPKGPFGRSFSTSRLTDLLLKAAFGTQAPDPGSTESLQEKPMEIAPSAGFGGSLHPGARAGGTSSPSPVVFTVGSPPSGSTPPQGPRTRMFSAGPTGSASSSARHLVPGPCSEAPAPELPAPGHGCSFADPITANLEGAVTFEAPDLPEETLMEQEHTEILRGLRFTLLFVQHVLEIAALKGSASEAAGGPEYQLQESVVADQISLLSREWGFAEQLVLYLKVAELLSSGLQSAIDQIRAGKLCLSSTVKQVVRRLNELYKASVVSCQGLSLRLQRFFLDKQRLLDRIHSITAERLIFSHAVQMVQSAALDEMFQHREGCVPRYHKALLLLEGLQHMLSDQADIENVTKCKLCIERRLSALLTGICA
To be noted: cited from earlier work.

In test [1] the test system is HEK293 CriptoFC 1B8 cell line. In words: Cripto-FC expression by flow cytometry, concentration response. To be noted: Homo sapiens, Cripto-FC model protein, 10 point concentration response, top concentration 6 μM, read-out: pAC50 for Improved Protein Expression, Cripto-FC (converted). It counts as cell-based. The method, then: Human Embryonic Kidney (HEK) cells, Expi293F cell line, were co-transfected using Expifectamine with vectors for targeted integration of one of three model proteins, Cripto-Fc, PLAP and hGFRα2, and a vector expressing Zinc Finger Nucelases that target the AAVS1 locus in the genome. As shown below in Table 3, Cripto-Fc served as a high volume expressing protein, PLAP a medium expressing protein, and hGFRα2 as a low expressing protein. After 48 hours, selection with puromycin blasticidin were applied to enrich for cells with the vectors integrated. After 14 days, cells were sorted by flow cytometry as single cells in 96 well plates. After single colonies were isolated the cells were expanded and analyzed to determine the gene copy number of the recombinant target gene in each clone. […]
To confirm hits from the primary screen, the available positive hits were subjected to the counter screening without addition of antibody-conjugates to remove flourescent compounds. In parallel, a 10 point concentration response curve with a top concentration of 6 μM for each of the compounds was determined. Only compounds that lacked inherent fluorescence, and increased protein expression with at least 30% in a dose-dependent mariner were counted as confirmed hits. […]
(A flow cytometer gives signals particle by particle.)

Structures are written as SMILES.

For the compound `CN1CCc2cc(Nc3ncc(C4CC4)c(NCCCNC(=O)C4CCC4)n3)ccc2C1` [MRT68921], the AC50 in the test on HEK293 PLAP cell line is 60.3 nM; in test [1] it was 79.4 nM. The IC50 (in general, the concentration needed to halve the response being measured) on ULK1 is roughly 2.9 nM.
